Results on 9 compounds are retold here after US7071173B2, “Antiviral methods employing double esters of 2′, 3′-dideoxy-3′-fluoroguanosine” (Medivir AB, priority 1998, dated 2006).

One may read the bioavailability as the share of a dose that reaches the circulation, judged against a reference dose that is usually intravenous.

Like-named read-outs stand apart in the source and are kept apart here.

Data set [1] is described as follows: Rat bioavailability of the indanolic ring hydroxy prodrug, mother compound in plasma by LC-MS. It counts as in vivo, rats. On the procedure:
Bioavailability of the ring indanolic ring hydroxy compound of Example B-1 was assessed in rats by the procedure of Biological Example 5 also using a propylene glycol vehicle, 58 mg/kg (0.047 mmol/kg), but wherein the mother compound N1, N6-di [(1S,2R)-2-hydroxy-2,3-dihydro-1-H-1-indenyl]-(2R, 3R, 5R)-2,5-di(benzyloxy)-3,4-dihydroxyhexanediamide was assayed by LC-MS using SiM (single ion monitoring) with M/Z ion detector 653. Plasma results are presented as μM in the table below: […]

For data set [2] the following is noted: rat, in vivo, po.
Experimental: At 30, 60, 120, 240 & 360 minutes, 0.2 ml blood were collected, centrifuged and frozen for later analysis. […] Aliquots comprising 40–100 μl of each plasma sample are mixed with an equal volume of acetonitrile (10 seconds, Vibrofex). The sample is centrifuged (2 min, 14000 RPM) and 30 μl of the supernatant is injected into an HPLC system, as follows.
A short description of data set [3]: Rat pharmacokinetics: FLG in serum after oral prodrug, absolute oral bioavailability. The following applies: in vivo. The text has this: (§1) Biomed. Anal. 13, 369–376.
The nature of data set [4]: Bioavailability of FLG as detected by the present inventors. The following applies: in vivo; FLG itself. The text has this:
International patent application no. […] The former compound FLG is very active in vitro however the present inventors have detected that its bioavailability is so poor-around 4%-that the in vivo utility of the compound has thus far been limited to intraperitoneally or subcutaneously administered animal models.

For data set [5] the following is noted: FLG itself; **literature value; cited from earlier work.
The test system of data set [6] is SIVSM. The experiment in a line: XTT dye uptake assay utilising MT4 cells. The class given is cell-based, SIV. To be noted: Simian immunodeficiency virus, read-out: IC50, concentration of metabolite inducing 50% inhibition of viral replication. The text has this:
(§2) In the XTT dye uptake assay of Koshida et al Antimicrob Agents Chemother.

The nature of data set [7]: Protein binding in serum samples. The class given is in vitro ADME.
From the text: as §1

Data set [8] relates to HIV-1^2441 AZT^r. The data set is described as follows: XTT dye uptake assay utilising MT4 cells. The class given is cell-based. To be noted: Human immunodeficiency virus 1, MT4, read-out: IC50, concentration of metabolite inducing 50% inhibition of viral replication.
From the text: as §2
For orientation: Formazan colour is commonly taken as a measure of viable cells.

Data set [9] concerns HIV-1^29/9. The experiment in a line: XTT dye uptake assay utilising MT4 cells. It counts as cell-based. To be noted: Human immunodeficiency virus 1, read-out: IC50, concentration of metabolite inducing 50% inhibition of viral replication.
From the text: as §2

For data set [10], the system named is HIV-2SBL6669. The data set is described as follows: XTT dye uptake assay utilising MT4 cells. The class given is cell-based. The following applies: Human immunodeficiency virus 2, read-out: IC50, concentration of metabolite inducing 50% inhibition of viral replication.
From the text: as §2

Data set [11] has as its system HIV-1111B TIBO^r. The data set is described as follows: XTT dye uptake assay utilising MT4 cells. The class given is cell-based, HIV-1. The following applies: Human immunodeficiency virus 1, MT4, read-out: IC50, concentration of metabolite inducing 50% inhibition of viral replication.
From the text: as §2

In data set [12] the test system is HIV-1111B. The experiment in a line: XTT dye uptake assay utilising MT4 cells. The class given is cell-based, HIV-1. To be noted: Human immunodeficiency virus 1, MT4, read-out: IC50, concentration of metabolite inducing 50% inhibition of viral replication.
From the text: as §2

Data set [13] in a line: Weight gain of treated DHBV-infected ducks (toxicity). The class given is in vivo. The text has this:
The activity of antivirals on duck hepatitis B virus (DHBV) in ducks is an acknowledged animal model for the validation of in vivo hepatitis B activity in humans. […] The ducks were two days old when inoculated with DHBV and 18 days old when treatment was commenced. […] Treatment lasted 33 days and the animals were followed 5 weeks after the end of treatment.

The test system of data set [14] is duck hepatitis B virus (DHBV). The experiment in a line: DHBV model in ducks, serum DHBV DNA by dot blot-hybridisation. The class given is in vivo. The text has this:
The activity of antivirals on duck hepatitis B virus (DHBV) in ducks is an acknowledged animal model for the validation of in vivo hepatitis B activity in humans. […] The results are depicted in FIGS. […] The ducks were two days old when inoculated with DHBV and 18 days old when treatment was commenced. The metabolite and PBS (controls) were given intraperitoneally for 10 days as twice daily injections, at 8 am and 4 pm. Treatment lasted 33 days and the animals were followed 5 weeks after the end of treatment.
The efficacy of treatment was followed by dot blot-hybridisation of DHBV DNA in serum using a radioactive probe and the amount of DHBV measured as the amount of radioactivity hybridised. FIG. 1 plots the amount of DHBV DNA in serum at different timepoints before, during and after treatment.

On to `CC(C)C(N)C(=O)OC1Cc2ccccc2C1NC(=O)[C@H](OCc1ccccc1)C(O)C(O)[C@@H](OCc1ccccc1)C(=O)N[C@H]1c2ccccc2CC1OC(=O)C(N)C(C)C` (some centres unmarked), for which, in data set [1] (rats, same assay, comparator dosed itself), the bioavailability result is “below the level of detection”.
Take `CCC(=O)c1ccc(F)c([C@@H]2C[C@@H]2NC(=O)Nc2ccc(C#N)cn2)c1OCOC(=O)[C@@H](N)[C@@H](C)CC` (relative stereo) [Example P-1, (1S. 2S)-N-{cis-2-[6-fluoro-2-(L-isoleucyloxymethyloxy)-3-propionylphenyl]cyclopropyl}-N′-[2-(5-cyanopyridyl)]urea]: the “Bioavailability0–6 hours” value in data set [2] is recorded as 34%.
With `CCCCCCCCCCCCCCCCCC(=O)OCC(CCCC(=O)OC[C@H]1O[C@@H](n2cnc3c(=O)[nH]c(N)nc32)C[C@@H]1F)COC(=O)[C@@H](N)C(C)C` (stereo partly drawn) [Example 12, 2′ 3′-dideoxy-3′-fluoro-5′-O-[5-(L-valyloxymethyl)-6-stearoyloxyhexanoyl]guanosine], the “6 h absolute bioavail. %” value in [3] was found to be 29%.
Take `CCCCCCCCCCCCCCCCCC(=O)OCC(COC(=O)[C@@H](N)C(C)C)CC(=O)OC[C@H]1O[C@@H](n2cnc3c(=O)[nH]c(N)nc32)C[C@@H]1F` (some centres unmarked) [Example 13]: in data set [3], the “6 h absolute bioavail. %” value worked out at 37%.
For the compound `CCCCCCCCCCCCCCCCCC(=O)OC(COC(=O)[C@@H](N)C(C)C)C(=O)OC[C@H]1O[C@@H](n2cnc3c(=O)[nH]c(N)nc32)C[C@@H]1F` (some centres unmarked) [Example 25], the “6 h absolute bioavail. %” value in [3] was found to be 81.5%.
For `CC(C)[C@H](N)C(=O)OCC(COC(=O)[C@@H](N)C(C)C)CC(=O)OC[C@H]1O[C@@H](n2cnc3c(=O)[nH]c(N)nc32)C[C@@H]1F` [Example 26, 2′, 3′-Dideoxy-3′-fluoro-5′-O-[3,3-bis(L-valyloxymethyl)-propionic acid] guanosine], the “12 h absolute bioavail. %” value in data set [3] is 67.5%.
As to `CC(C)[C@H](N)C(=O)OCC(COC(=O)[C@@H](N)C(C)C)OC(=O)CCC(=O)OC[C@H]1O[C@@H](n2cnc3c(=O)[nH]c(N)nc32)C[C@@H]1F` [Example 29, 2′, 3′-Dideoxy-3′-fluoro-5′-O-3-[1,3-bis-(L-valyloxy]-2-propyloxycarbonylpropanoyl]guanosine], in [3], the “6 h absolute bioavail. %” value was found to be 51%.
Regarding `Nc1nc2c(ncn2[C@H]2C[C@H](F)[C@@H](CO)O2)c(=O)[nH]1` [FLG, 2′,3′-dideoxy, 3′-fluoroguanosine], the bioavailability in data set [4] is approximately 4%. Besides, the “12 h absolute bioavail. %” value in [5] was 9%**. The IC50 in data set [6] is 1 µg/mL; in data set [8], 1 µg/mL; in data set [9], 0.7 µg/mL; in data set [10], 2 µg/mL; in [11], 1 µg/mL; in [12] it was 1 µg/mL. For the same compound, in data set [7], the protein binding entry is “neglible”. Moreover, in data set [13] (5 mg/kg/day, compared with PBS treated controls), the “weight of the ducks during treatment” value is recorded as “increased in the same way as in the control”. Moreover, in [13] (ducks, treatment period), the “toxicity judged from growth rate” value was “clearly non-toxic”. Besides, the “inhibition of DHBV in vivo” value in [14] (0.3 mg/kg/day) is on record as “considerable inhibition of DHBV in vivo”. Moreover, the “amount of DHBV DNA in serum during treatment” value in data set [14] (5 mg/kg/day intraperitoneally, twice daily injections) is given as “dramatic decrease in the amount of DHBV in serum during the first 10 days of treatment, whereupon for the remainder of treatment the level of DHBV DNA was below the detection limit”. Further, in data set [14] (after the finish of treatment, followed 5 weeks), the “DHBV in serum after the finish of treatment” value is recorded as “virus reappeared in the serum”. The “serum DHBV DNA during treatment” value in [14] (repeat experiments at 30 and 3 mg/kg/day and with congenitally infected ducks) is recorded as “dramatic fall in serum DHBV DNA to under the detection threshold”.
With `O=C(N[C@H]1c2ccccc2C[C@H]1O)[C@H](OCc1ccccc1)C(O)[C@@H](O)[C@@H](OCc1ccccc1)C(=O)N[C@H]1c2ccccc2C[C@H]1O` (stereo partly drawn) [mother compound, N1, N6-di [(1S,2R)-2-hydroxy-2,3-dihydro-1-H-1-indenyl]-(2R, 3R, 5R)-2,5-di(benzyloxy)-3,4-dihydroxyhexanediamide], in data set [1] (rat, in vivo), the bioavailability entry was “below level of detection”.
